From US20200260697A1, “METHODS OF MOUSE CLINICAL TRIAL” (CROWN BIOSCIENCE, INC. (TAICANG), priority 2016, published 2020)

Legend:
Format in all cases: in vivo, mouse
gastric cancer PDXs = assay: LMM (Equation 8) of the cisplatin dataset with ERCC1 expression as covariate; conditions: LMM Equation 8, gastric cancer PDXs
Excerpt: The LMM can readily incorporate PDX-level genomic covariates, e.g. gene expression and mutation, for biomarker analysis. We used the same dataset to examine if ERCC1 expression is related to cisplatin response in gastric cancer by fitting the following LMM:
lnVtij=β0+β1×Dayt+β2×Dayt×ERCC1j+β3×Dayt×Treatmentij+β4×Dayt×ERCC1j×Treatmentij+u0j+u1j×Dayt+u(0i|j)+u(1i|j)×Dayt+ϵtij (8)
In this model, β2 evaluates ERCC1 expression as a prognostic biomarker since it is for both vehicle and cisplatin groups. […] The coefficient β4 examines ERCC1 expression as a predictive biomarker for cisplatin. The fitted value of β4 is 0.0136, close to that of β2. Therefore, high ERCC1 expression acts adversely to cisplatin treatment (FIG. 9E). The parameter β3 quantifies cisplatin treatment and is estimated to be −0.0879. Results from our LMM may have clinical implications.

[1] = test system: 42 PDXs including 13 esophageal cancers (ES), 21 gastric cancers (GA) and 8 lung cancers(LU); assay: MCT evaluating cisplatin response on 42 PDXs, tumor volume analysed by linear mixed model (Equation 7) and AUC ratio
Procedure: In a MCT, tumor volume is measured at multiple time points for each mouse, and these tumor volumes are often correlated, as in a typical longitudinal study. As shown above, almost all growth curves under vehicle treatment can be modeled by the linear Equation 2, and under drug treatment, about 80% of the growth curves are linear or close to linear. If we introduce a quadratic term on the day (x^2), more than 90% of the growth curves can be fitted with R^2>0.7, and 97% with R^2>0.4. With such strong linearity, the linear mixed models (LMM) is a proper and powerful tool to analyze the clustered longitudinal data from MCTs (West B T et al., “Linear Mixed Models: A Practical Guide Using Statistical Software, Second Edition”, Crc Press (2014)). Specifically, a 3-level model is appropriate, in which PDX and mouse are random factors, and covariates at the PDX-level and mouse-level can be included (FIG. 9A). We used an MCT to illustrate the application of LMMs for drug response evaluation and biomarker discovery. The MCT evaluated cisplatin response (4 mg/kg, daily dosing for 3 weeks) on 42 PDXs including 13 esophageal cancers (ES), 21 gastric cancers (GA) and 8 lung cancers(LU), each PDX had 5-9 mice (FIGS. 9B-C). A general model was specified for tumor volume, in log scale, at day t for mouse i within PDX j as follows: [formula] The model used vehicle in ES as the reference. There were […], β0 for the intercept, β1 for the time slope, β2 and β3 quantify the growth rate difference of GA and LU with respect to ES, β4 measures cisplatin effect, β5 and β6 check if GA and LU respond differently to cisplatin. The model also had 5 random effects, including the residual ϵtij. In a MCT, we can view the cohort of PDXs as random samples from a PDX or patient population, therefore, they have different growth rates, which is modeled by the random effect u1j associated with the time slope. Similarly, we model the growth difference for mice within a PDX by the random effect u1i|j. Mice and PDX may also have different starting tumor volumes, which are modeled by the two random effects on intercept: u0j and u0i|j. Therefore, our LMM captures both PDX-level and mouse-level growth heterogeneity under vehicle and drug treatments. […] From the model, we can get fitted cancer specific growth curves, as well as PDX and mouse specific growth curves. On average, cisplatin reduces tumor growth rate by about 38%.

[2] = test system: 42 PDXs including 13 esophageal cancers (ES), 21 gastric cancers (GA) and 8 lung cancers(LU); assay: Survival analysis (PFS, OS) of the cisplatin MCT dataset, additive frailty model and proportional hazard Cox model; conditions: cisplatin versus vehicle
Excerpt: Survival analysis are the most important endpoints of human clinical trials and can also be potentially adapted to MCT by first defining “clinical endpoint” of PFS (progress-free survival) and OS (overall survival) in preclinical setting. By the RECIST standard (Therasse P et al., J Natl Cancer Inst (2000) 92(3):205-16), we define PFS as the time until the starting tumor volume increases by 73%, and define OS as the time until the starting tumor volume triples, at which the tumor volume is usually between 300-600 mm^3, depending on initial tumor volumes. As we have shown in examples above, tumors already start exponential growth before it reaches 600 mm^3. The definitions are more of a custom and can certainly be adjusted otherwise. For example, Gao et al defined PFS as the time until tumor volume doubles (Gao H et al., Nat Med (2015) 21(11):1318-25). We can also define OS as the time until the starting tumor volume quadruples and so on.
In human oncology trails, survival time of patients is usually assumed to be independent of each other. […] Mice have correlated survival time both within a PDX and between treatments (FIGS. 10A-B). There is heterogeneity on hazard and drug response for PDXs. We used an additive frailty model to fit the survival data in MCTs (Rondeau V et al., J Statistical Software (2012) 47(4):1-28; Hanagal D D, Statistical Methods in Medical Research (2015) 24(6):936-36). In this model, the hazard function for the j-th mouse of the i-th PDX is
hij(t)=h0(t)exp(ui+(w+vi)Tij+β^TXi)
where h0(t) is the baseline hazard function. Parameter ui is the random effect (the first frailty term) associated with the i-th PDX that captures its characteristic growth, thus survival behavior, without drug treatment. Parameter vi is the random effect (the second frailty term) associated the i-th PDX that depicts its drug response deviating from the mean drug effect w of all PDXs. Tij is the treatment variable and it equals 0 for the vehicle treatment and 1 for the drug treatment; Xi is a vector for the PDX's covariates, e.g., cancer type and gene expression; β^T is the parameter vector quantifying the fixed effects of the covariates. The two random effects ui and vi assume a bivariate normal distribution with zero means, variance σ^2 and τ^2, and covariance ρστ. If the two random effects ui and vi are removed, the model reduces to the proportional hazard Cox model.
We used the cisplatin dataset in the previous example to illustrate modeling by the additive frailty model, using the R package frailtypack (Rondeau V et al., J Statistical Software (2012) 47(4):1-28). For simplicity, we used treatment as the sole covariate. By Equation 10, we observed that both frailty terms are significant larger than 0 (Wald test p-value<0.05) for PFS and OS analyses. […]

Question: With `N.N.[Cl][Pt][Cl]` [cisplatin] as the molecule, how does the “β3 (Day × Treatment), quantifies cisplatin treatment” value (gastric cancer PDXs; ERCC1 expression as covariate) read?
Answer: The value was −0.0879.

Question: And the “β4 (Day × ERCC1 × Treatment), ERCC1 expression as predictive biomarker for cisplatin” value (gastric cancer PDXs; positive value: high ERCC1 expression acts adversely to cisplatin treatment)?
Answer: Its value is 0.0136.

Question: And the “response across cancer types” value ([1]; ES, GA and LU PDXs, p-values for β5 and β6 >0.05)?
Answer: The value was “comparable responses on the 3 cancer types”.

Question: And the “β4 (Day × Treatment) estimate, cisplatin effect on growth rate of ln tumor volume” value ([1]; LMM Equation 7, vehicle in ES as reference, REML estimate, second figure not defined, p-value 1.2E−19)?
Answer: The value was −0.0282(0.0031).

Question: And the “β5 (Day × CancerTypeGA × Treatment) estimate” value ([1]; LMM Equation 7, checks if GA responds differently to cisplatin than ES, REML estimate, second figure not defined, p-value 0.35)?
Answer: The value was 0.0037(0.0039).

Question: And the “β6 (Day × CancerTypeLU × Treatment) estimate” value ([1]; LMM Equation 7, checks if LU responds differently to cisplatin than ES, REML estimate, second figure not defined, p-value 0.84)?
Answer: The value was −0.0011(0.0052).

Question: And the “reduction of tumor growth rate, on average (LMM)” value ([1]; cisplatin 4 mg/kg, daily dosing for 3 weeks, 42 PDXs, 5-9 mice each, LMM Equation 7)?
Answer: The value was “about 38%”.

Question: What about the “reduction of tumor growth rate by the AUC ratio method” value ([1]; cisplatin 4 mg/kg, daily dosing for 3 weeks, 42 PDXs, AUC ratio method) of the same molecule?
Answer: The value was 36%.

Question: And the “hazard ratio (HR) for OS” value ([2]; additive frailty model, OS = time until starting tumor volume triples)?
Answer: Its value is 0.21 (95% CI: 0.15-0.31).

Question: And the “hazard ratio (HR) for PFS” value ([2]; additive frailty model, PFS = time until starting tumor volume increases by 73%)?
Answer: The value was 0.40 (95% CI: 0.31-0.50).

Question: What about the “OS HR” value ([2]; proportional hazard Cox model) of the same molecule?
Answer: Its value is 0.36 (95% CI: 0.28-0.46).

Question: And the “PFS HR” value ([2]; proportional hazard Cox model)?
Answer: Its value is 0.48 (95% CI: 0.40-0.58).
